Earlier results in patent US9265757B2, “Methods of administering antihistamines” (APTAPHARMA INC., priority 2011, dated 2016).

Conditions: second generation antihistamines; from time of administration to symptomatic relief
For `COc1ccc(CCN2CCC(Nc3nc4ccccc4n3Cc3ccc(F)cc3)CC2)cc1` [astemizole], the “lag time before onset of action” value is listed as “several hours”.
For `O=C(O)COCCN1CCN(C(c2ccccc2)c2ccc(Cl)cc2)CC1` (stereo not shown) [cetirizine], the “lag time before onset of action” value is listed as “several hours”.
For `CCOC(=O)N1CCC(=C2c3ccc(Cl)cc3CCc3cccnc32)CC1` [loratadine], the “lag time before onset of action” value is listed as “several hours”.
For `CC(C)(C)c1ccc(C(O)CCCN2CCC(C(O)(c3ccccc3)c3ccccc3)CC2)cc1` (stereo not shown) [terfenadine], the “lag time before onset of action” value is listed as “several hours”.
